# Measured values published in ChEMBL document CHEMBL3769389, “Development of a potent 2-oxoamide inhibitor of secreted phospholipase A2 guided by molecular docking calculations and molecular dynamics simulations” (Bioorg Med Chem, 2016).
# Columns and labels:
# [1] = target: T1, Phospholipase A2, membrane associated (Homo sapiens) (UniProt P14555); experiment: Inhibition of human group 2A secreted phospholipase A2 at 1 uM by fluorescence assay
# T1 sequence (whole entry): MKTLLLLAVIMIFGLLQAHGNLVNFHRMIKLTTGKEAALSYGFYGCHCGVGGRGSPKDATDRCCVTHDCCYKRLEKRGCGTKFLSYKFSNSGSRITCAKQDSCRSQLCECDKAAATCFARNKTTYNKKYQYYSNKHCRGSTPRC
# [2] = target: T2, Phospholipase A2, membrane associated (Mus musculus) (UniProt P31482); experiment: Inhibition of mouse group 2A secreted phospholipase A2 at 1 uM by fluorescence assay
# T2 sequence (whole entry): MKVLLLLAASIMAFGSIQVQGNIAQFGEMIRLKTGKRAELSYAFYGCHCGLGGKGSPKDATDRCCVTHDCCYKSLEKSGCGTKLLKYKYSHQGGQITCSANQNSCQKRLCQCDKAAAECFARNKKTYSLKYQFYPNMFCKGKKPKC
# [3] = target: T1, Phospholipase A2, membrane associated (Homo sapiens); experiment: Inhibition of human group 2A secreted phospholipase A2 at 10 uM by fluorescence assay
# [4] = target: T3, Phospholipase A2 group V (Homo sapiens) (UniProt P39877); experiment: Inhibition of human group 5 secreted phospholipase A2 at 10 uM by fluorescence assay
# T3 sequence (whole entry): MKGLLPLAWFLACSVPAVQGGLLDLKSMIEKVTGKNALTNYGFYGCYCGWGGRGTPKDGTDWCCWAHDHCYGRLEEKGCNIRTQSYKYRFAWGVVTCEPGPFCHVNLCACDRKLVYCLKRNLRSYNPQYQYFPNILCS
# [5] = target: Phospholipase A2 (Homo sapiens) (UniProt P04054); experiment: Inhibition of human group 1B secreted phospholipase A2 at 10 uM by fluorescence assay
# Sequence of Phospholipase A2 (Homo sapiens) (P04054 23-148 limits assumed): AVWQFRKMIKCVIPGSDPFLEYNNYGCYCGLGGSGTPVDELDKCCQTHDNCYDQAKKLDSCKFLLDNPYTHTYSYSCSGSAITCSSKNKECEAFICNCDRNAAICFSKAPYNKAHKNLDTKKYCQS
# [6] = target: T4, Group 10 secretory phospholipase A2 (Homo sapiens) (UniProt O15496); experiment: Inhibition of human group 10 secreted phospholipase A2 at 10 uM by fluorescence assay
# T4 sequence (whole entry): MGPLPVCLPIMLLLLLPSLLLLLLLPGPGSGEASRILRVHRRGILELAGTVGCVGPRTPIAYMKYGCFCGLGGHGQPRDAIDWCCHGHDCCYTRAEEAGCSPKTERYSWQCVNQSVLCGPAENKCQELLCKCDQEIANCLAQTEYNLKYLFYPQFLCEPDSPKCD
# [7] = target: T5, Phospholipase A2 group V (Mus musculus) (UniProt P97391); experiment: Inhibition of mouse group 5 secreted phospholipase A2 assessed as remaining activity at 1000 nM by fluorescence assay
# T5 sequence (whole entry): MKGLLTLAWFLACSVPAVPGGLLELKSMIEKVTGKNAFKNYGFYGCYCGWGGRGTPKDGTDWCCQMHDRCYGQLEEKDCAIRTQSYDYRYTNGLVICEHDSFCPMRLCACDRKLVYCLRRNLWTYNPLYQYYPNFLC
# [8] = target: T6, Phospholipase A2, membrane associated (Mus musculus, UniProt P31482); experiment: Inhibition of mouse group 2A secreted phospholipase A2 by fluorescence assay
# T6 sequence (P31482 whole entry): T2 sequence (whole entry)
# [9] = target: T7, Group IID secretory phospholipase A2 (Mus musculus) (UniProt Q9WVF6); experiment: Inhibition of mouse 2D secreted phospholipase A2 assessed as remaining activity at 1000 nM by fluorescence assay
# T7 sequence (whole entry): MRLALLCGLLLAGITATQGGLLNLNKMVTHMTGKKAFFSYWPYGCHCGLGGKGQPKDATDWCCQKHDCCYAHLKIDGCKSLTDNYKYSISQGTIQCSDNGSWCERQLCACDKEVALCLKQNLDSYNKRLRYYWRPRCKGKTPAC
# [10] = target: T8, Group IIE secretory phospholipase A2 (Homo sapiens) (UniProt Q9NZK7); experiment: Inhibition of human group 2E secreted phospholipase A2 assessed as remaining activity at 1000 nM by fluorescence assay
# T8 sequence (whole entry): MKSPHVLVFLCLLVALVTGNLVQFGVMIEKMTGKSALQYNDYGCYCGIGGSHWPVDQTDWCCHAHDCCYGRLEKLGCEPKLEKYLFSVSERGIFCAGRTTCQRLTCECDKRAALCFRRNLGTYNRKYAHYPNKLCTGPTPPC
# Homo sapiens = species: Homo sapiens; experiment: Selectivity ratio of IC50 for human group 5 secreted phospholipase A2 to human group 2A secreted phospholipase A2
# Phospholipase A2 group V = target: T9, Phospholipase A2 group V (Homo sapiens, UniProt P39877); experiment: Inhibition of human group 5 secreted phospholipase A2 by fluorescence assay
# T9 sequence (P39877 whole entry): T3 sequence (whole entry)
# [11] = target: T10, Phospholipase A2, membrane associated (Homo sapiens, UniProt P14555); experiment: Inhibition of human group 2A secreted phospholipase A2 by fluorescence assay
# T10 sequence (P14555 whole entry): T1 sequence (whole entry)
# [12] = target: T1, Phospholipase A2, membrane associated (Homo sapiens); experiment: Potency index, ratio of GK126 IC50 to compound IC50 for human group 2A secreted phospholipase A2
# [13] = target: T4, Group 10 secretory phospholipase A2 (Homo sapiens); experiment: Inhibition of human group 10 secreted phospholipase A2 assessed as remaining activity at 1000 nM by fluorescence assay
# [14] = target: T2, Phospholipase A2, membrane associated (Mus musculus); experiment: Potency index, ratio of GK126 IC50 to compound IC50 for mouse group 2A secreted phospholipase A2
# [15] = target: T11, Group IIF secretory phospholipase A2 (Homo sapiens) (UniProt Q9BZM2); experiment: Inhibition of human group 2F secreted phospholipase A2 assessed as remaining activity at 1000 nM by fluorescence assay
# T11 sequence (whole entry): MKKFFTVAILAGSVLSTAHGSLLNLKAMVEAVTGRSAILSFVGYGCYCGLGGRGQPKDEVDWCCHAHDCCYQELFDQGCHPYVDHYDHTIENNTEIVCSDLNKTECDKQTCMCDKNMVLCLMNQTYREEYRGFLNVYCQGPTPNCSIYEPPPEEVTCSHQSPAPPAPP
# [16] = target: Phospholipase A2 (Homo sapiens) (UniProt P04054); experiment: Inhibition of human group 1B secreted phospholipase A2 assessed as remaining activity at 1000 nM by fluorescence assay
# [17] = target: T12, Group 10 secretory phospholipase A2 (Mus musculus) (UniProt Q9QXX3); experiment: Inhibition of mouse group 10 secreted phospholipase A2 assessed as remaining activity at 1000 nM by fluorescence assay
# T12 sequence (whole entry): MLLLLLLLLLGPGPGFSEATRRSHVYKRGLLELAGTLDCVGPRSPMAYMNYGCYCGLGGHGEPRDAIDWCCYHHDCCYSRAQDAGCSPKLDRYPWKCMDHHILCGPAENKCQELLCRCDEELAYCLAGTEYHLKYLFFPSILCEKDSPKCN
SMILES,inhibition [1] [%],inhibition [2] [%],inhibition [3] [%],inhibition [4] [%],inhibition [5] [%],inhibition [6] [%],also measured
CCCCCCCCCCCCCCC(=O)C(=O)N[C@@H](CCC(=O)O)C(=O)OCC,< 25,< 25,–,–,–,–,–
CCCCCCCCCCCCCCC(=O)C(=O)N[C@H](C(=O)O)C(C)(C)C,< 25,< 25,–,–,–,–,–
CC(C)[C@H](NC(=O)C(=O)c1ccc2ccccc2c1)C(=O)O,–,–,50,53,50,56,–
CC(C)[C@H](NC(=O)C(=O)CCCCc1ccccc1)C(=O)O,–,–,11,40,56,40,–
CC(C)[C@H](NC(=O)C(=O)CCCCc1ccc(-c2ccccc2)cc1)C(=O)O,–,–,21,50,30,54,–
CCCCCCCCCCCCCCC(=O)C(=O)N1CCC[C@H]1C(=O)O,< 25,< 25,–,–,–,–,–
CCCCCCCCCCCCCCC(=O)C(=O)NC(C)(C)C(=O)O,< 25,< 25,–,–,–,–,–
CCCCCCCCCCCCCCC(=O)C(=O)N[C@@H](CCC(=O)O)C(=O)O,< 25,< 25,–,–,–,–,–
CCCCCCCCCCCCCCC(=O)C(=O)N[C@H](C(=O)O)C(C)C,–,–,–,–,–,–,Activity [7]: 90%; IC50 [8]: 68 nM; Activity [9]: 99%; Activity [10]: 93%; Ratio IC50 (Homo sapiens): 10; IC50 (Phospholipase A2 group V): 1200 nM; IC50 [11]: 143 nM; Ratio IC50 [12]: 2; Activity [13]: 95%; Ratio IC50 [14]: 2; Activity [15]: 94%; Activity [16]: 98%; Activity [17]: 98%
CC(C)[C@H](NC(=O)C(=O)CCCCc1ccc2ccccc2c1)C(=O)O,–,–,27,26,20,51,–
CCCCCCCCCCCCCCC(=O)C(=O)N[C@@H](C)C(=O)O,< 25,< 25,–,–,–,–,–
